Values of other authors as cited in patent US20100086495A1, “COMPOSITIONS AND METHODS FOR ENHANCING TRANSMUCOSAL DELIVERY” (DERMA-YOUNG LTD., priority 2007, published 2010).

Conditions: vitamin B12 deficient subjects

- increase in serum concentration levels of the vitamin, sublingual versus conventional oral vitamin B12: same extent of increase
Substance: vitamin B12
